# Experimental data: paper PMC7435865, “Antinociceptive and Cytotoxic Activity of Opioid Peptides with Hydrazone and Hydrazide Moieties at the C-Terminus” (Molecules, 2020)
# Where “and” joins values, the source holds several entries; their conditions need not be identical. Identical values can stand only once. Like-named read-outs stand apart in the source and are kept apart here. [ ]: non-standard residue; d: D form.
# How the values were obtained:
# µ opioid receptor (MOR) [1] = target: T1, µ opioid receptor (MOR) (Rattus norvegicus, UniProt P33535); assay: competitive radioligand binding, [3H]DAMGO displacement in rat brain homogenate
# T1 construct: from tissue; host or cells: rat brain (membrane fractions of homogenate)
# T1 sequence (P33535 whole entry): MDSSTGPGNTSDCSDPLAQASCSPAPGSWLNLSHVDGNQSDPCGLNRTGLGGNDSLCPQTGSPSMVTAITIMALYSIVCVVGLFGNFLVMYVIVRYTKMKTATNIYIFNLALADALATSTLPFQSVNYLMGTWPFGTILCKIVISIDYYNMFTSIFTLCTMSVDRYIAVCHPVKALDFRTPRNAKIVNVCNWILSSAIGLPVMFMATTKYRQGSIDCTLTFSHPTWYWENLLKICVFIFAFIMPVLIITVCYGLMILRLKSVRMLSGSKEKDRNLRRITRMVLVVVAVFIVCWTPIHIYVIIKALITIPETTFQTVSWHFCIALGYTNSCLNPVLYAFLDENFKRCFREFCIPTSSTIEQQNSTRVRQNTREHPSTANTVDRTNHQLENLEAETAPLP
# Protocol: (§1) The synthesized compounds were assayed for binding affinity to the μ- and δ-opioid (MOR and DOR, respectively), as well as to the neurokinin-1 receptors (NK1R). The determinations were performed in rat brain homogenates by competitive displacement of selective radioligands. The results are shown in Table 2 as the half-maximal inhibitory concentration (IC50) with the standard error of the mean (SEM).
# (§2) The binding affinity of compounds 1b–6a for MOR, DOR, and NK1R was determined in competitive radioligand binding assays according to the method previously described. The specific radioligands were [^3H]DAMGO (DAMGO, [Tyr^1-3,5-^3H])), [^3H][Ile^5,6]DELT II ([Ile^5,6]Deltorphin II, [Tyr^l-3,5-^3H]) and [^3H]Substance P (Substance P, [Leu-3,4,5-^3H]), for experiments with MOR, DOR, and NK1R, respectively. The first two were obtained from Isotope Laboratory, Biological Research Centre, Institute of Biochemistry (Szeged, Hungary), whereas the latter was purchased from Perkin Elmer (Perkin Elmer Inc., Krakow, Poland). Membrane fractions of rat brain homogenate were incubated at 25 °C for 60 min in the presence of radioligands (0.5 nM) specific for each receptor and increasing concentrations of the tested compounds. To measure non-specific binding, 10 μM naloxone was used as the competitor for opioid receptors and 10 μM cold Substance P was used for NK1R. The reactions were carried out in assay buffer containing Tris-HCl (pH 7.4) with an addition of bovine serum albumin (BSA) and protease inhibitors (bacitracin, bestatin, captopril). After the incubation, the binding reactions were terminated by rapid filtration with M-24 Cell Harvester (Brandel/USA) through GF/B Whatman glass fiber strips (presoaked with 0.5% PEI in order to minimize non-specific binding). Radioactivity retained on the filters was measured in MicroBeta LS on a Trilux scintillation counter (PerkinElmer, Santa Clara, CA, USA). The experiments were repeated at least two times in duplicate. The IC50 value for each compound was determined using GraphPad Prism.
# [2] = tested on: MeW155 human melanoma cells; assay: melanoma cell number in culture after incubation with compound; assay type: cell-based; conditions: 50 µM, 96 h incubation
# Protocol: The determination was performed by counting the cells of the MeW155 cell line after incubating them with 50 µM of the tested compounds.
# The cells were plated in 24-well plates (5000 cells per well) and incubated for 24 h in Eagle’s medium containing 10% fetal bovine serum and 1% solution of penicillin and streptomycin. […] Control cells were treated with 1% DMSO only. After 96 h of incubation, the cell suspension was first lysed in lysis buffer (ReagentA, ChemoMetec A/S) and then stabilized in stabilization buffer (ReagentB, ChemoMetec A/S). The number of […] was quantified in a propidium iodide cassette with the use of a NucleoCounter® NC-100™ (ChemoMetec A/S) cell counter. The tests were performed in triplicate. The results were normalized so that the values obtained for the control were 100%.
# δ opioid receptor (DOR) = target: T2, δ opioid receptor (DOR) (Rattus norvegicus, UniProt P33533); assay: competitive radioligand binding, [3H][Ile5,6]Deltorphin II displacement in rat brain homogenate
# T2 construct: from tissue; host or cells: rat brain (membrane fractions of homogenate)
# T2 sequence (P33533 whole entry): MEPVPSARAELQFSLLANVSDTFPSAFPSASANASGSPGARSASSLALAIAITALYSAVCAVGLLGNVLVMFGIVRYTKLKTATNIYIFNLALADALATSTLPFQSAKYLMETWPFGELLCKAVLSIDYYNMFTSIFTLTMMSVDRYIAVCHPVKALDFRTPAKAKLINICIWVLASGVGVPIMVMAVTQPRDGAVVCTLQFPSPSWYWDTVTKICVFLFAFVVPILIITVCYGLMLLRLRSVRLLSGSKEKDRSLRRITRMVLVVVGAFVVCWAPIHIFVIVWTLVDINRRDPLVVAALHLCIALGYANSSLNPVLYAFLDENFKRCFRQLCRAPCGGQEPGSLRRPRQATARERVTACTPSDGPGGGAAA
# Protocol: as §1, §2
# male Wistar rats [3] = assay: tail flick test after intrathecal administration; assay type: in vivo, rat; conditions: for ED50 ± SEM: tail flick, i.t., n = 4–8
# Protocol: Analgesic activity of compounds 1b–1d was measured in the tail flick test after intrathecal administration to rats, according to a procedure thoroughly described before. First, adult male Wistar rats weighing 200–250 g were prepared for intrathecal administration by the catherization method described previously by Yaksh and Rudy. Each experimental group consisted of 4–8 rats. Next, spinally mediated analgesia was assessed in the tail flick test utilizing the Plantar Test and Tail Flick Analgesia Meter apparatus (IITC Life Science Inc., Los Angeles, CA, USA). Withdrawal latency was measured in triplicate. The cut-off latencies were set at 7 s to avoid burns. The measurements were performed before the administration of the tested compound (time 0) and 5, 15, 30, 60, and 120 min after injection. The control group received injections of 0.9% NaCl. Data from in vivo studies are presented as means ± SEM and were analyzed using two-way repeated measures of ANOVA followed by Dunnett-corrected multiple comparisons. Significance was defined as * p < 0.033, ** p < 0.002, *** p < 0.001. Data were analyzed using GraphPad Prism. The responses were expressed as a percentage of a maximum possible effect (%MPE), calculated as ((T1 − T0)/(T2 − T0)) × 100, where T0 and T1 are latencies before and after drug injection, respectively, and T2 is the cut-off time. All experimental procedures were approved by The Local Committee for Ethics in Animal Experiments, permission no. 46/2013.
# [4] = target: T3, neurokinin-1 receptor (NK1R) (Rattus norvegicus, UniProt P14600); assay: competitive radioligand binding, [3H]Substance P displacement in rat brain homogenate
# T3 construct: from tissue; host or cells: rat brain (membrane fractions of homogenate)
# T3 sequence (P14600 whole entry): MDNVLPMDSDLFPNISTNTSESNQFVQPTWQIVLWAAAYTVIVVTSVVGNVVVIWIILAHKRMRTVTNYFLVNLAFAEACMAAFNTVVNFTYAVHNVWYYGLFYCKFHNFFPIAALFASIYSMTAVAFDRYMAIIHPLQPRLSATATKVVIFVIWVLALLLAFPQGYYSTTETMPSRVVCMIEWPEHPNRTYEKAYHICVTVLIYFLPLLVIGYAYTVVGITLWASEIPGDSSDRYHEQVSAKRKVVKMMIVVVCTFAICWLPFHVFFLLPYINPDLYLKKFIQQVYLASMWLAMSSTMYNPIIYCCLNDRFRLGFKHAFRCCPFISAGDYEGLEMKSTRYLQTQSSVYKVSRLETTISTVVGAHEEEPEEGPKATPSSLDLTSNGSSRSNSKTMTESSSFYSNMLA
# Protocol: as §1, §2
# MOR = conditions: cited from earlier work
# DOR = target: DOR; parameters: method as in PMID 17927164; conditions: cited from earlier work
# µ opioid receptor (MOR) [5] = target: T1, µ opioid receptor (MOR); parameters: method as in PMID 28105278; conditions: rat brain homogenate; previously reported ref 33; read-out: MOR IC50 ± SEM; cited from earlier work
# male Wistar rats [6] = tested on: male Wistar rats; parameters: method as in PMID 28105278; conditions: already published ref 33, cited from earlier work
# [7] = 0.5 nmol/rat i.t., 15 min after injection
compound,measurement,setting,value
"C[C@@H](NC(=O)[C@@H](N)Cc1ccc(O)cc1)C(=O)NCC(=O)N[C@@H](Cc1ccccc1)C(=O)NNC(=O)c1cc(C(F)(F)F)cc(C(F)(F)F)c1 [1b, H-Tyr-D-Ala-Gly-Phe-NH-NH-C(=O)-3,5-(CF3)2Ph]",IC50,µ opioid receptor (MOR) [1],111 ± 12.7 nM
same,effect on number of melanoma cells (in words),[2],no effect
same,IC50,δ opioid receptor (DOR),413 ± 105 nM
same,area under the time course curve (AUC) of analgesic effect,male Wistar rats [3]; 0.5 nmol/rat i.t.,3421 ± 673 units
same,"antinociceptive effect, % of maximal possible effect",male Wistar rats [3]; [7],65 ± 6 % MPE
same,IC50,[4],> 1000 nM
"C[C@@H](NC(=O)[C@@H](N)Cc1ccc(O)cc1)C(=O)NCC(=O)N[C@@H](Cc1ccccc1)C(=O)NNC(=O)Cc1cc(C(F)(F)F)cc(C(F)(F)F)c1 [1c, H-Tyr-D-Ala-Gly-Phe-NH-NH-C(=O)-CH2-3,5-(CF3)2Ph]",IC50,µ opioid receptor (MOR) [1],5.25 ± 1.14 nM
same,effect on number of melanoma cells (in words),[2],no effect
same,IC50,δ opioid receptor (DOR),162 ± 8.75 nM
same,area under the time course curve (AUC) of analgesic effect,male Wistar rats [3]; 0.5 nmol/rat i.t.,1417 ± 730.1 units
same,"antinociceptive effect, % of maximal possible effect",male Wistar rats [3]; [7],31 ± 6 % MPE
same,"antinociceptive effect, % of maximal possible effect","male Wistar rats [3]; 1 nmol/rat i.t., 15 min",85 ± 7 % MPE
same,ED50 ± SEM,male Wistar rats [3],0.56 ± 0.04 nmol/rat
same,IC50,[4],> 1000 nM
"C[C@@H](NC(=O)[C@@H](N)Cc1ccc(O)cc1)C(=O)NCC(=O)N[C@@H](Cc1ccccc1)C(=O)NNC(=O)NN=Cc1cc(C(F)(F)F)cc(C(F)(F)F)c1 [1d, H-Tyr-D-Ala-Gly-Phe-NH-NH-C(=O)-NH-N=CH-3,5-(CF3)2Ph]",IC50,µ opioid receptor (MOR) [1],4.73 ± 0.02 nM
same,effect on number of melanoma cells (in words),[2],no effect
same,IC50,δ opioid receptor (DOR),44 ± 2.75 nM
same,area under the time course curve (AUC) of analgesic effect,male Wistar rats [3]; 0.5 nmol/rat i.t.,5732 ± 1161 units
same,"antinociceptive effect, % of maximal possible effect",male Wistar rats [3]; [7],~ 80 % MPE
same,"antinociceptive effect, % of maximal possible effect","male Wistar rats [3]; 2 nmol/rat i.t., 120 min after administration",39 ± 10 % MPE
same,"antinociceptive effect, % of maximal possible effect","male Wistar rats [3]; 4 nmol/rat i.t., 15 min",99 ± 7 % MPE
same,ED50 ± SEM,male Wistar rats [3],0.32 ± 0.04 nmol/rat
same,IC50,[4],> 1000 nM
H2N-Tyr-D-Ala-Gly-Phe-NH-NH←Phe←Gly←D-Ala←Tyr-NH2 [biphalin],IC50,MOR,1.4 nM
H-Tyr-D-Ala-Gly-Phe-NH2,Ki,DOR,300 nM
same,Ki,MOR; read-out: MOR Ki,2.8 nM
"H-Tyr-D-Ala-Gly-Phe-NH-N=CH-3,5-(CF3)2Ph [1a]",effect on number of melanoma cells (in words),[2],significantly decrease the number of melanoma cells
same,"number of MeW155 cells, % of the control value",[2],39 ± 4 % of the control
same,IC50,µ opioid receptor (MOR) [5],12.7 ± 0.75 nM
same,"antinociceptive effect, % of maximal possible effect",male Wistar rats [6]; [7],~ 80 % MPE and 80 ± 9 % MPE
same,area under the time course curve (AUC) of analgesic effect,male Wistar rats [6]; 0.5 nmol/rat i.t.,4483 ± 592 units
same,ED50 ± SEM,"male Wistar rats [6]; tail flick, i.t.",0.18 ± 0.05 nmol/rat
H-Tyr-D-Ala-Gly-Phe-NH-NH2,IC50,MOR,4.7 nM
H-Tyr-D-Ala-Trp-Cyn,IC50,MOR,77.6 nM
H-Tyr-Pro-Phe-NH2,Ki,MOR; read-out: MOR inhibition constant Ki,46.3 nM
H-Tyr-[dA]-Trp-OH,IC50,MOR,977 nM
H-Y[dA]FF-NH2 [TAPP],IC50,MOR; determined in the authors' laboratory,5.1 nM
H-Y[dA]GW-NH2,times weaker as a MOR binder than the [Phe4]-variant,MOR; versus H-Tyr-D-Ala-Gly-Phe-NH2,about 2 times
Tyr-Pro-Phe-Phe-NH2 [endomorphin-2],IC50,MOR,3.9 nM
